In ChEMBL document CHEMBL1777732 (Bioorg Med Chem Lett, 2011):
The source made the active and inactive calls. The calls are words filed in the database; no cut-off is given here.

Legend:
[1] = molecular target: T1, Metabotropic glutamate receptor 5 (Homo sapiens, UniProt P41594); test: Positive allosteric modulation of human mGluR5 expressed in HEK293 cells assessed as increase of L-glutamate-induced calcium mobilization by FLIPR assay; format: functional, cell-based
Target sequence in this assay (P41594 whole entry): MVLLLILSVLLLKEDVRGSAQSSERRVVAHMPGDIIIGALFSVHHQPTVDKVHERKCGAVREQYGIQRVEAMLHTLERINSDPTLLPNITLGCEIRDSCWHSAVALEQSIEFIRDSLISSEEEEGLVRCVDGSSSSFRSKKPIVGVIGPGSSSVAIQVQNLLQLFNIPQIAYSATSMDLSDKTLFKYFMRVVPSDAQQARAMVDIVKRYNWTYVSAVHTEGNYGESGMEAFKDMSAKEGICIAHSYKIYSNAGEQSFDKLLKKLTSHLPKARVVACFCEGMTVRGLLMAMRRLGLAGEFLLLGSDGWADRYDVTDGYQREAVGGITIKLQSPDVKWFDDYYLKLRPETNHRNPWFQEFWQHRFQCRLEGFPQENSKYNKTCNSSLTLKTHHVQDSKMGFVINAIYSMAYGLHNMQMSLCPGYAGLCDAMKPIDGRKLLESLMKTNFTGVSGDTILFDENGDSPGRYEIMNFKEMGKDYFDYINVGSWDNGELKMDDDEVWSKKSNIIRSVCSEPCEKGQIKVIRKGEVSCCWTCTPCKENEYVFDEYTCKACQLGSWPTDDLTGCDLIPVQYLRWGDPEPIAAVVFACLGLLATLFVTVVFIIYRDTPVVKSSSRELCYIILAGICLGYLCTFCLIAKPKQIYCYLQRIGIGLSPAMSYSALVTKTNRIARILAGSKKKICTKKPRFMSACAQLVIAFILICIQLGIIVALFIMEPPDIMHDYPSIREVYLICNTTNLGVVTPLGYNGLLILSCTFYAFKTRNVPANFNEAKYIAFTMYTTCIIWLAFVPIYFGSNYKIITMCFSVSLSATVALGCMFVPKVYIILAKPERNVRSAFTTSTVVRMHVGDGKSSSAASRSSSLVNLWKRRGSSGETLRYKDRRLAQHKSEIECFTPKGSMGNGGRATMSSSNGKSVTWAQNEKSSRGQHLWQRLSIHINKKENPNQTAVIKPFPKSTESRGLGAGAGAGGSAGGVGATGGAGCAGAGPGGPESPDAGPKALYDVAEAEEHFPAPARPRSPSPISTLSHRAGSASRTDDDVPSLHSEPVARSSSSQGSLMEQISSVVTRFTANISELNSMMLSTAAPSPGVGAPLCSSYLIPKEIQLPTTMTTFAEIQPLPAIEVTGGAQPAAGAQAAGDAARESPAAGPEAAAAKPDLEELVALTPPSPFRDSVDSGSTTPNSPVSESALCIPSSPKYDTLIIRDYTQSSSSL

[2] = molecular target: T1, Metabotropic glutamate receptor 5; test: Positive allosteric modulation of human mGluR5 expressed in HEK293 cells assessed as increase of L-glutamate-induced calcium mobilization at 10 uM by FLIPR assay relative to L-glutamate; format: functional, cell-based
Target sequence in this assay (P41594 21-1212 limits assumed): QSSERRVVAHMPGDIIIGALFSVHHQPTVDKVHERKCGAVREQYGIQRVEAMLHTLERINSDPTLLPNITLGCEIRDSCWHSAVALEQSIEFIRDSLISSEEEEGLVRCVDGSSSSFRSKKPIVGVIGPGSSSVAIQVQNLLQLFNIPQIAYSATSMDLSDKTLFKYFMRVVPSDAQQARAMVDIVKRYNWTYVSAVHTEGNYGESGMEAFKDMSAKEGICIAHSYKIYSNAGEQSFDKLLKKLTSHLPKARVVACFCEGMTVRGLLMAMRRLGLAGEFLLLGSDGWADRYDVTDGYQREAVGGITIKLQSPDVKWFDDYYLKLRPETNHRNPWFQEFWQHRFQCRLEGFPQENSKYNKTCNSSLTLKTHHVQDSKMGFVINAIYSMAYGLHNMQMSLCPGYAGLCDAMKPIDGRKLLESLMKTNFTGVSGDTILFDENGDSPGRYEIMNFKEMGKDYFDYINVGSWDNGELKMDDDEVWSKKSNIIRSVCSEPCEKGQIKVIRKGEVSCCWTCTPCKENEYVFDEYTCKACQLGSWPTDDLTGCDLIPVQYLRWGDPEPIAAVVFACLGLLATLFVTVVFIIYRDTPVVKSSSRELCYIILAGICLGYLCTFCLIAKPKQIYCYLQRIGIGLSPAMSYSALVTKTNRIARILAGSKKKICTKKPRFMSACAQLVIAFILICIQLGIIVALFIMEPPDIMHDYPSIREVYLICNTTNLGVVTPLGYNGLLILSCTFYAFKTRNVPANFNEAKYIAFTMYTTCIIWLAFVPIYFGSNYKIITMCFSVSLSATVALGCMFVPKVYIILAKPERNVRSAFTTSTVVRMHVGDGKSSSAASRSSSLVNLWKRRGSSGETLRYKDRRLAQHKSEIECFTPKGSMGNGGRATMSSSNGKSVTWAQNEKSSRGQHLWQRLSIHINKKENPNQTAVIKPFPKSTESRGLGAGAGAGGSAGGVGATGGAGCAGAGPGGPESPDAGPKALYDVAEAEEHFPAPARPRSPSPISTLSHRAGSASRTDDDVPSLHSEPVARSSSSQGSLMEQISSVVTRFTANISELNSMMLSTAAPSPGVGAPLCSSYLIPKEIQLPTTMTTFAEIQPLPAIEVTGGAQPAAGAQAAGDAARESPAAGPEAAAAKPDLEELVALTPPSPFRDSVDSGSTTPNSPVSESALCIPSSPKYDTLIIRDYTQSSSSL

[3] = molecular target: T1, Metabotropic glutamate receptor 5; test: Displacement of [3H]-MPEP from human mGluR5 expressed in HEK293 cells after 2 hrs; format: cell-based
Target sequence in this assay (P41594 whole entry): as the sequence (P41594 whole entry) above

[4] = molecular target: T1, Metabotropic glutamate receptor 5; test: Negative allosteric modulation of human mGluR5 expressed in HEK293 cells assessed as inhibition of L-glutamate-induced calcium mobilization by FLIPR assay; format: functional, cell-based
Target sequence in this assay (P41594 whole entry): as above

[5] = molecular target: T1, Metabotropic glutamate receptor 5; test: Negative allosteric modulation of human mGluR5 expressed in HEK293 cells assessed as inhibition of L-glutamate-induced calcium mobilization at 10 uM by FLIPR assay relative to control; format: functional, cell-based
Target sequence in this assay (P41594 21-1212 limits assumed): as the sequence (P41594 21-1212 limits assumed) above

Row | SMILES | EC50 ([1]; read-out: EC50) | Emax [2] | Ki [3] | IC50 ([4]; read-out: IC50) | Imax [5] | IC50 ([4]; hek293) | EC50 ([1]; hek293)
1 | Cc1cccc(C#Cc2ccc3c(n2)CCN(C2CCCC2)C3=O)c1 | 7.5 nM | 97% | 670 nM |  |  |  | 
2 | CN1CCc2nc(C#Cc3ccccn3)ccc2C1=O |  |  | 6240 nM | 184 nM | 92% |  | 
3 | COc1cccc(C#Cc2ccc3c(n2)CCN(C2CCCC2)C3=O)c1 | 462 nM | 25% | > 32000 nM |  |  |  | 
4 | CNC(=O)c1ccc(C#Cc2ccccc2)nc1 |  |  | 15000 nM |  |  |  | 
5 | O=C1c2ccc(C#Cc3cccnc3)nc2CCN1C1CCCCC1 | 387 nM | 73% | 15600 nM |  |  |  | 
6 | Cc1cccc(C#Cc2ccc3c(n2)CCN(C2CCCCC2)C3=O)c1 | 36 nM | 54% | 3210 nM |  |  |  | 
7 | O=C(NC1CCCC1)c1ccc(C#Cc2ccccn2)nc1 |  |  | 7600 nM | 227 nM | 90% |  | 
8 | O=C1c2ccc(C#Cc3ccccn3)nc2CCN1C1CCCC1 |  |  | 1770 nM | 199 nM | 80% |  | 
9 | CC(C)NC(=O)c1ccc(C#Cc2ccccc2)nc1 | 62 nM | 61% | 7100 nM |  |  |  | 
10 | O=C1c2ccc(C#Cc3cccnc3)nc2CCN1C1CCCC1 | 748 nM | 68% | > 32000 nM |  |  |  | 
11 | CN1CCc2nc(C#Cc3cccs3)ccc2C1=O |  |  | 2170 nM | 451 nM | 49% |  | 
12 | O=C(NC1CCCC1)c1ccc(C#Cc2ccccc2)nc1 | 19 nM | 106% | 3300 nM |  |  |  | 
13 | O=C1c2ccc(C#Cc3ccccc3)nc2CCN1C1CCCCC1 | 40 nM | 122% | 12400 nM |  |  |  | 
14 | O=C1c2ccc(C#Cc3ccccc3Cl)nc2CCN1C1CCCCC1 | 924 nM | 68% | > 32000 nM |  |  |  | 
15 | O=C1c2ccc(C#Cc3ccccc3)nc2CCN1C1CCCC1 | 5.9 nM | 109% | 890 nM |  |  |  | 
16 | Cc1ccccc1C#Cc1ccc2c(n1)CCN(C1CCCCC1)C2=O | 466 nM | 62% | > 32000 nM |  |  |  | 
17 | O=C1c2ccc(C#Cc3ccccn3)nc2CCN1C1CCCCC1 |  |  | 2240 nM | 518 nM | 74% |  | 
18 | O=C1c2ccc(C#Cc3cccs3)nc2CCN1C1CCCCC1 | 13 nM | 112% | 720 nM |  |  |  | 
19 | Cc1ccccc1C#Cc1ccc2c(n1)CCN(C1CCCC1)C2=O | 239 nM | 107% | 18800 nM |  |  |  | 
20 | COc1cccc(C#Cc2ccc3c(n2)CCN(C2CCCCC2)C3=O)c1 |  |  | 23200 nM |  |  |  | 
21 | O=C(NC1CCCC1)c1ccc(C#Cc2cccnc2)nc1 | > 10000 nM | 68% | > 32000 nM |  |  |  | 
22 | O=C1c2ccc(C#Cc3cccs3)nc2CCN1C1CCCC1 | 12 nM | 103% | 2840 nM |  |  |  | 

The remaining lines, values ahead:

Row | EC50 ([1]; read-out: EC50) | Emax [2] | Ki [3] | IC50 ([4]; read-out: IC50) | Imax [5] | IC50 ([4]; hek293) | EC50 ([1]; hek293) | SMILES
23 |  |  | 27100 nM | 4230 nM | 61% |  |  | CC(C)N1CCc2nc(C#Cc3ccc(Cl)cc3)ccc2C1=O
24 |  |  | 6150 nM | 352 nM | 73% |  |  | CN1CCc2nc(C#Cc3ccc(Cl)cc3)ccc2C1=O
25 |  |  | 3660 nM | 293 nM | 88% |  |  | COc1cccc(C#Cc2ccc3c(n2)CCN(C)C3=O)c1
26 | 33 nM | 87% | 5230 nM |  |  |  |  | O=C1c2ccc(C#Cc3cccc(Cl)c3)nc2CCN1C1CCCC1
27 |  |  | 7900 nM | 916 nM | 70% |  |  | CN1CCc2nc(C#Cc3ccccc3Cl)ccc2C1=O
28 |  | inactive | > 32000 nM |  | inactive | Not Active | Not Active | O=C1c2ccc(C#Cc3ccc(Cl)cc3)nc2CCN1C1CCCCC1
29 |  |  | 510 nM | 4.8 nM | 88% |  |  | Cc1cccc(C#Cc2ccc3c(n2)CCN(C(C)C)C3=O)c1
30 |  |  | > 32000 nM | 776 nM | 80% |  |  | Cc1ccccc1C#Cc1ccc2c(n1)CCN(C)C2=O
31 | 979 nM | 98% | > 32000 nM |  |  |  |  | O=C1c2ccc(C#Cc3ccc(Cl)cc3)nc2CCN1C1CCCC1
32 |  |  | 820 nM | 2.9 nM | 86% |  |  | Cc1cccc(C#Cc2ccc3c(n2)CCN(C)C3=O)c1
33 | 1010 nM | 28% | 20200 nM |  |  |  |  | Cc1ccc(C#Cc2ccc3c(n2)CCN(C(C)C)C3=O)cc1
34 | 171 nM | 47% | 12000 nM |  |  |  |  | O=C1c2ccc(C#Cc3cccc(Cl)c3)nc2CCN1C1CCCCC1
35 |  |  | 19600 nM |  |  | Not Active | Not Active | CC(C)N1CCc2nc(C#Cc3cccnc3)ccc2C1=O
36 |  |  | 27400 nM |  |  | Not Active | Not Active | CN1CCc2nc(C#Cc3cccnc3)ccc2C1=O
37 |  |  | 100 nM | 5.7 nM | 86% |  |  | CC(C)N1CCc2nc(C#Cc3cccc(Cl)c3)ccc2C1=O
38 |  |  | 2740 nM | 27 nM | 89% |  |  | CC(C)N1CCc2nc(C#Cc3ccccn3)ccc2C1=O
39 |  |  | 7450 nM | 1400 nM | 68% |  |  | Cc1ccc(C#Cc2ccc3c(n2)CCN(C)C3=O)cc1
40 |  |  | 1930 nM | 45 nM | 78% |  |  | CC(C)N1CCc2nc(C#Cc3cccs3)ccc2C1=O
41 | 4820 nM | 97% | > 32000 nM |  |  |  |  | Cc1ccc(C#Cc2ccc3c(n2)CCN(C2CCCC2)C3=O)cc1
42 |  |  | 250 nM | 22 nM | 84% |  |  | CN1CCc2nc(C#Cc3cccc(Cl)c3)ccc2C1=O
43 |  |  | 5680 nM | 2520 nM | 61% |  |  | CC(C)N1CCc2nc(C#Cc3ccccc3Cl)ccc2C1=O
44 |  |  | 1280 nM | 706 nM | 60% |  |  | CC(C)N1CCc2nc(C#Cc3ccccc3)ccc2C1=O
45 | 393 nM | 115% | > 32000 nM |  |  |  |  | O=C1c2ccc(C#Cc3ccccc3Cl)nc2CCN1C1CCCC1
46 |  |  | > 32000 nM | 810 nM | 76% |  |  | Cc1ccccc1C#Cc1ccc2c(n1)CCN(C(C)C)C2=O
47 |  |  | 760 nM | 30 nM | 58% |  |  | CN1CCc2nc(C#Cc3ccccc3)ccc2C1=O
48 |  |  | 2950 nM | 111 nM | 88% |  |  | COc1cccc(C#Cc2ccc3c(n2)CCN(C(C)C)C3=O)c1
49 |  |  | 27200 nM |  |  |  |  | Cc1ccc(C#Cc2ccc3c(n2)CCN(C2CCCCC2)C3=O)cc1
